Source: patent publication US20030166653A1, “Novel form of (r)-n-[5-methyl-8-(4-methylpiperazin-1-yl)-1,2,3,4-tetrahydro-2-naphthyl]-4-morpholinobenzamide” (priority 2003, published 2003)

Legend:
Assay type in all cases: physicochemical
[1] = Water sorption by dynamic vapour sorption (DVS); settings: for hygroscopicity / water uptake in words: solid state characterization, monohydrobromide
[2] = Stability of solution in 0.1 M HCl, pH 1.1, HPLC assay
Excerpt: (§1) The stability of [5-Methyl-8-(4-methylpiperazin-1-yl)-1,2,3,4-tetrahydro-2-naphtyl]-4-morpholinobenzamide(=“Base” in tables below) and (R)-N-[5-methyl-8-(4-methylpiperazin-1-yl)-1,2,3,4-tetrahydro-2-naphtyl]-4-morpholinobenzamide monohydrobromide Form A (=“Form A” in tables below), as bulk drug substance and in solutions at different pH levels after exposure to daylight and at elevated temperatures, has been studied. Three solutions were made from each batch of drug substance. One solution in pure water, one in 0.1 mM HCl (pH 4.1) and one in 0.1 M HCl (pH 1.1). The content of [5-Methyl-8-(4-methylpiperazin-1-yl)-1,2,3,4-tetrahydro-2-naphtyl]-4-morpholinobenzamide (=Base) was determined by HPLC, all results are calculated as the base.

[3] = Solubility in water by HPLC-analysis
[4] = Stability of solution in 0.1 mM HCl, pH 4.1, HPLC assay
Excerpt: as §1

[5] = Stability in water solutions (pH not adjusted), HPLC assay
Excerpt: as §1

[6] = Stability of bulk drug substance (HPLC purity) in daylight and at 90° C.; settings: for HPLC Purity (100% - related substances): bulk
Protocol: The stability of [5-Methyl-8-(4-methylpiperazin-1-yl)-1,2,3,4-tetrahydro-2-naphtyl]-4-morpholinobenzamide(=“Base” in tables below) and (R)-N-[5-methyl-8-(4-methylpiperazin-1-yl)-1,2,3,4-tetrahydro-2-naphtyl]-4-morpholinobenzamide monohydrobromide Form A (=“Form A” in tables below), as bulk drug substance and in solutions at different pH levels after exposure to daylight and at elevated temperatures, has been studied. The bulk substances are very stable, both in daylight and at 90° C. There are no significant differences between the HPLC purity of [5-Methyl-8-(4-methylpiperazin-1-yl)-1,2,3,4-tetrahydro-2-naphtyl]-4-morpholinobenzamide (=Base) and (R)-N-[5-methyl-8-(4-methylpiperazin-1-yl)-1,2,3,4-tetrahydro-2-naphtyl]-4-morpholinobenzamide monohydrobromide Form A (=Form A) at the tested conditions.

[7] = daylight RT, 14 days, % of start
[8] = daylight RT, 23 days, % of start

Br.Cc1ccc(N2CCN(C)CC2)c2c1CC[C@@H](NC(=O)c1ccc(N3CCOCC3)cc1)C2 [Form A, (R)-N-[5-methyl-8-(4-methylpiperazin-1-yl)-1,2,3,4-tetrahydro-2-naphtyl]-4-morpholinobenzamide monohydrobromide]
water sorbed as measured by dynamic vapour sorption (DVS) ([1]; 80% RH and 25° C.): 0,8% | hygroscopicity / water uptake in words [1]: non-hygroscopic | Solution in 0.1 M HCl, pH 1.1, assay ([2]; 5° C., 8 days, % of start): 100% | Solution in 0.1 M HCl, pH 1.1, assay ([2]; 5° C., 14 days, % of start): 100% | Solution in 0.1 M HCl, pH 1.1, assay ([2]; 5° C., 23 days, % of start): 98% | Solution in 0.1 M HCl, pH 1.1, assay ([2]; 5° C., Start): 0.504 mg base/ml | Solution in 0.1 M HCl, pH 1.1, assay ([2]; 5° C., Start, % of start): (100%) | Solution in 0.1 M HCl, pH 1.1, assay ([2]; 60° C., 2 days, % of start): 100% | Solution in 0.1 M HCl, pH 1.1, assay ([2]; 60° C., 8 days, % of start): 97% | Solution in 0.1 M HCl, pH 1.1, assay ([2]; 60° C., 14 days, % of start): 95% | Solution in 0.1 M HCl, pH 1.1, assay ([2]; 60° C., 23 days, % of start): 88% | Solution in 0.1 M HCl, pH 1.1, assay ([2]; 60° C., Start): 0.504 mg base/ml | Solution in 0.1 M HCl, pH 1.1, assay ([2]; 60° C., Start, % of start): (100%) | Solution in 0.1 M HCl, pH 1.1, assay ([2]; Dark RT, 8 days, % of start): 101% | Solution in 0.1 M HCl, pH 1.1, assay ([2]; Dark RT, 14 days, % of start): 99% | Solution in 0.1 M HCl, pH 1.1, assay ([2]; Dark RT, 23 days, % of start): 98% | Solution in 0.1 M HCl, pH 1.1, assay ([2]; Dark RT, Start): 0.504 mg base/ml | Solution in 0.1 M HCl, pH 1.1, assay ([2]; Dark RT, Start, % of start): (100%) | Solution in 0.1 M HCl, pH 1.1, assay [2, 7]: 100% | Solution in 0.1 M HCl, pH 1.1, assay [2, 8]: 98% | Solution in 0.1 M HCl, pH 1.1, assay ([2]; daylight RT, Start): 0.504 mg base/ml | Solution in 0.1 M HCl, pH 1.1, assay ([2]; daylight RT, Start, % of start): (100%) | stability in solution in words ([2]; pH 1.1, except at 60° C.): good | solubility in water in words [3]: satisfactory | solubility in water ([3]; as the free base by HPLC-analysis): 6400 µg/mL | Solution in 0.1 mM HCl, pH 4.1, assay ([4]; 5° C., 8 days, % of start): 100% | Solution in 0.1 mM HCl, pH 4.1, assay ([4]; 5° C., 14 days, % of start): 100% | Solution in 0.1 mM HCl, pH 4.1, assay ([4]; 5° C., 23 days, % of start): 100% | Solution in 0.1 mM HCl, pH 4.1, assay ([4]; 5° C., Start): 0.0490 mg base/ml | Solution in 0.1 mM HCl, pH 4.1, assay ([4]; 5° C., Start, % of start): (100%) | Solution in 0.1 mM HCl, pH 4.1, assay ([4]; 60° C., 2 days, % of start): 97% | Solution in 0.1 mM HCl, pH 4.1, assay ([4]; 60° C., 8 days, % of start): 93% | Solution in 0.1 mM HCl, pH 4.1, assay ([4]; 60° C., 14 days, % of start): 90% | Solution in 0.1 mM HCl, pH 4.1, assay ([4]; 60° C., 23 days, % of start): 81% | Solution in 0.1 mM HCl, pH 4.1, assay ([4]; 60° C., Start): 0.0490 mg base/ml | Solution in 0.1 mM HCl, pH 4.1, assay ([4]; 60° C., Start, % of start): (100%) | Solution in 0.1 mM HCl, pH 4.1, assay ([4]; Dark RT, 8 days, % of start): 99% | Solution in 0.1 mM HCl, pH 4.1, assay ([4]; Dark RT, 14 days, % of start): 99% | Solution in 0.1 mM HCl, pH 4.1, assay ([4]; Dark RT, 23 days, % of start): 98% | Solution in 0.1 mM HCl, pH 4.1, assay ([4]; Dark RT, Start): 0.0490 mg base/ml | Solution in 0.1 mM HCl, pH 4.1, assay ([4]; Dark RT, Start, % of start): (100%) | Solution in 0.1 mM HCl, pH 4.1, assay [4, 7]: 99% | Solution in 0.1 mM HCl, pH 4.1, assay [4, 8]: 97% | Solution in 0.1 mM HCl, pH 4.1, assay ([4]; daylight RT, Start): 0.0490 mg base/ml | Solution in 0.1 mM HCl, pH 4.1, assay ([4]; daylight RT, Start, % of start): (100%) | stability in solution in words ([4]; pH 4.1, except at 60° C.): good | Stability in water solutions, assay ([5]; 5° C., 8 days, % of start): 101% | Stability in water solutions, assay ([5]; 5° C., 14 days, % of start): 100% | Stability in water solutions, assay ([5]; 5° C., 23 days, % of start): 99% | Stability in water solutions, assay ([5]; 5° C., Start): 0.0248 mg base/ml | Stability in water solutions, assay ([5]; 5° C., Start, % of start): (100%) | Stability in water solutions, assay ([5]; 60° C., 2 days, % of start): 84% | Stability in water solutions, assay ([5]; 60° C., 8 days, % of start): 81% | Stability in water solutions, assay ([5]; 60° C., 14 days, % of start): 76% | Stability in water solutions, assay ([5]; 60° C., 23 days, % of start): 82% | Stability in water solutions, assay ([5]; 60° C., Start): 0.0248 mg base/ml | Stability in water solutions, assay ([5]; 60° C., Start, % of start): (100%) | stability in pure water solution, comparison in words ([5]; 60° C., pH not adjusted): less stable than the Base | Stability in water solutions, assay ([5]; Dark RT, 8 days, % of start): 99% | Stability in water solutions, assay ([5]; Dark RT, 14 days, % of start): 99% | Stability in water solutions, assay ([5]; Dark RT, 23 days, % of start): 97% | Stability in water solutions, assay ([5]; Dark RT, Start): 0.0248 mg base/ml | Stability in water solutions, assay ([5]; Dark RT, Start, % of start): (100%) | Stability in water solutions, assay ([5]; daylight RT, 8 days, % of start): 100% | Stability in water solutions, assay [5, 7]: 101% | Stability in water solutions, assay [5, 8]: 100% | Stability in water solutions, assay ([5]; daylight RT, Start): 0.0248 mg base/ml | Stability in water solutions, assay ([5]; daylight RT, Start, % of start): (100%) | HPLC Purity (100% - related substances) ([6]; 90° C., 2 days): 99.6% | HPLC Purity (100% - related substances) ([6]; 90° C., 8 days): 99.6% | HPLC Purity (100% - related substances) ([6]; 90° C., 14 days): 99.5% | HPLC Purity (100% - related substances) ([6]; 90° C., 21 days): 99.6% | HPLC Purity (100% - related substances) ([6]; 90° C., 30 days): 99.4% | HPLC Purity (100% - related substances) ([6]; 90° C., Start): 99.7% | HPLC Purity (100% - related substances) ([6]; daylight, RT, 8 days): 99.6% | HPLC Purity (100% - related substances) ([6]; daylight, RT, 14 days): 99.5% | HPLC Purity (100% - related substances) ([6]; daylight, RT, 21 days): 99.5% | HPLC Purity (100% - related substances) ([6]; daylight, RT, 30 days): 99.5% | HPLC Purity (100% - related substances) ([6]; daylight, RT, Start): 99.7% | stability of bulk substance in words ([6]; in daylight and at 90° C.): very stable

Br.Cc1ccc(N2CCN(C)CC2)c2c1CC[C@@H](NC(=O)c1ccc(N3CCOCC3)cc1)C2 [Form B, (R)-N-[5-methyl-8-(4-methylpiperazin-1-yl)-1,2,3,4-tetrahydro-2-naphtyl]-4-morpholinobenzamide monohydrobromide]
hygroscopicity / water uptake in words [1]: readily resorbs water again
